As for `O=C(NCCC[C@H]1OC[C@H](c2cccc3cc(OCC4CC4)ccc32)CO1)OCC(F)(F)F` [Compound No. 68, 2,2,2-Trifluoroethyl trans-3-[5-(6-cyclopropylmethoxy-naphthalen-1-yl)-1,3-dioxan-2-yl]propylcarbamate], the melting point lay in the range of 105 to 107 °C.
Take `O=C(NCCC[C@H]1OC[C@H](c2cccc3ccccc32)CO1)OCC(F)(F)F` [compound 42, 2,2,2-trifluoroethyl trans-3-[5-(naphthalen-1-yl)-1,3-dioxan-2-yl]propylcarbamate]: the melting point lay within 89 to 92 °C.
Under `COc1ccc2cccc([C@H]3CO[C@H](CCCNC(=O)OCC(F)(F)F)OC3)c2c1` [compound 74, 2,2,2-trifluoroethyl trans-3-[5-(7-methoxynaphthalen-1-yl)-1,3-dioxan-2-yl]propylcarbamate] stands 93 to 96 °C.
`COc1ccc2c(cccc2[C@H]2CO[C@H](CCCNC(=O)Oc3ccccc3)OC2)c1` registered a melting point of 128 °C.
Consider `CNC(=O)COC(=O)NCCC[C@H]1OC[C@H](c2ccc(Cl)c3ccccc32)CO1` [compound 47, 2-(methylamino)-2-oxoethyl trans-3-[5-(4-chloro-naphthalen-1-yl)-1,3-dioxan-2-yl]propylcarbamate], for which the melting point lay in the range of 190 to 192 °C.
On to `CCNC(=O)COC(=O)NCCC[C@H]1OC[C@H](c2cccc3cc(OC)ccc32)CO1` [compound 58, 2-(ethylamino)-2-oxoethyl trans-3-[5-(6-methoxy-naphthalen-1-yl)-1,3-dioxan-2-yl]propylcarbamate], for which the melting point fell in the range of 170 to 172 °C.
As for `NC(=O)COC(=O)NCCC[C@H]1OC[C@H](c2cccc3ccccc32)CO1` [compound 38, 2-amino-2-oxoethyl trans-3-[5-(naphthalen-1-yl)-1,3-dioxan-2-yl]propylcarbamate], the melting point lay in the range of 112 to 114 °C.
Compound `O=C(NCC[C@H]1OC[C@H](c2cccc3ccccc32)CO1)OCC(F)(F)F` [compound 41, 2,2,2-trifluoroethyl trans-2-[5-(naphthalen-1-yl)-1,3-dioxan-2-yl]ethylcarbamate] came in with a melting point of 111 to 113 °C.
Under `CNC(=O)COC(=O)NCC[C@H]1OC[C@H](c2cccc3cc(OC)ccc32)CO1` [compound 54, 2-(methylamino)-2-oxoethyl trans-2-[5-(6-methoxy-naphthalen-1-yl)-1,3-dioxan-2-yl]ethylcarbamate] stands 136 to 138 °C.
Under `COc1ccc2c(cccc2[C@H]2CO[C@H](CCNC(=O)Oc3ccc(Cl)cc3)OC2)c1` stands 129 to 131 °C; under `CNC(=O)COC(=O)NCCC[C@H]1OC[C@H](c2cccc3ccc(OC)cc32)CO1` [compound 73, 2-(methylamino)-2-oxoethyl trans-3-[5-(7-methoxy-naphthalen-1-yl)-1,3-dioxan-2-yl]propylcarbamate], 144 to 146 °C; under `O=C(NCCC[C@H]1OC[C@H](c2cccc3ccccc32)CO1)Oc1ccccc1`, 125 to 127 °C.
`O=C(NCCC[C@H]1OC[C@H](c2ccc3ccccc3c2)CO1)Oc1ccccc1` registered a melting point of 130 to 131 °C.
Under `NC(=O)COC(=O)NCCC[C@H]1OC[C@H](c2cccc3cc(O)ccc32)CO1` [compound 70, 2-amino-2-oxoethyl trans-3-[5-(6-hydroxynaphthalen-1-yl)-1,3-dioxan-2-yl]propylcarbamate] stands 166 to 170 °C.
Turning to `COc1ccc2c(cccc2[C@H]2CO[C@H](CCCNC(=O)OCC(=O)NC3CC3)OC2)c1` [Compound No. 61, 2-(Cyclopropylamino)-2-oxoethyl trans-3-[5-(6-methoxy-naphthalen-1-yl)-1,3-dioxan-2-yl]propylcarbamate], the melting point turned out to be 176 °C.
With `COc1ccc2c(cccc2[C@H]2CO[C@H](CCCNC(=O)OCC(F)(F)F)OC2)c1` [compound 62, 2,2,2-trifluoroethyl trans-3-[5-(6-methoxynaphthalen-1-yl)-1,3-dioxan-2-yl]propylcarbamate], the melting point is 111 °C.
The figure for `CNC(=O)COC(=O)NCCC[C@H]1OC[C@H](c2cccc3ccccc32)CO1` [compound 40, 2-(methylamino)-2-oxoethyl trans-3-[5-(naphthalen-1-yl)-1,3-dioxan-2-yl]propylcarbamate] is 154 °C.
Turning to `O=C(NCCC[C@H]1OC[C@H](c2cccc3cc(OCC4CC4)ccc32)CO1)Oc1ccc(Cl)cc1`, the melting point was 159 to 162 °C.
As to `NC(=O)COC(=O)NCCC[C@H]1OC[C@H](c2cccc3cc(OCC4CC4)ccc32)CO1` [compound 66, 2-amino-2-oxoethyl trans-3-[5-(6-cyclopropylmethoxy-naphthalen-1-yl)-1,3-dioxan-2-yl]propylcarbamate], the melting point was in the range of 137 to 139 °C.
Consider `COc1ccc2c(cccc2[C@H]2CO[C@H](CCNC(=O)OCC(F)(F)F)OC2)c1` [compound 56, 2,2,2-trifluoroethyl trans-2-[5-(6-methoxynaphthalen-1-yl)-1,3-dioxan-2-yl]ethylcarbamate], for which the melting point fell in the range of 93 to 95 °C.
In turn, `COc1ccc2cccc([C@H]3CO[C@H](CCCNC(=O)Oc4ccccc4)OC3)c2c1` registered a melting point of 151 to 153 °C.
Compound `COc1ccc2c(cccc2[C@H]2CO[C@H](CCCNC(=O)OCC(=O)NCc3ccncc3)OC2)c1` [compound 60, 2-[(pyridin-4-yl)methylamino]-2-oxoethyl trans-3-[5-(6-methoxynaphthalen-1-yl)-1,3-dioxan-2-yl]propylcarbamate] had a melting point of 152 °C.
`COc1ccc2cccc([C@H]3CO[C@H](CCCNC(=O)OCC(N)=O)OC3)c2c1` [compound 72, 2-amino-2-oxoethyl trans-3-[5-(7-methoxynaphthalen-1-yl)-1,3-dioxan-2-yl]propylcarbamate] yielded a melting point of 156 to 158 °C.
Compound `CNC(=O)COC(=O)NCC[C@H]1OC[C@H](c2cccc3ccccc32)CO1` [compound 39, 2-(methylamino)-2-oxoethyl trans-2-[5-(naphthalen-1-yl)-1,3-dioxan-2-yl]ethylcarbamate] displayed a melting point of 86 to 88 °C.
On to `CNC(=O)COC(=O)NCCC[C@H]1OC[C@H](c2cccc3cc(O)ccc32)CO1` [compound 71, 2-(methylamino)-2-oxoethyl trans-3-[5-(6-hydroxy-naphthalen-1-yl)-1,3-dioxan-2-yl]propylcarbamate], for which the melting point lay within 140 to 148 °C.
Under `CNC(=O)COC(=O)NCCC[C@H]1OC[C@H](c2cccc3cc(Cl)ccc32)CO1` [compound 48, 2-(methylamino)-2-oxoethyl trans-3-[5-(6-chloro-naphthalen-1-yl)-1,3-dioxan-2-yl]propylcarbamate] stands 182 to 184 °C.
`CNC(=O)COC(=O)NCCC[C@H]1OC[C@H](c2cccc3cc(OC)ccc32)CO1` [compound 57, 2-(methylamino)-2-oxoethyl trans-3-[5-(6-methoxy-naphthalen-1-yl)-1,3-dioxan-2-yl]propylcarbamate] displayed a melting point of 128 to 130 °C.
For `O=C(NCCC[C@H]1OC[C@H](c2ccc3ccccc3c2)CO1)OCC(F)(F)F` [compound 78, 2,2,2-trifluoroethyl trans-3-[5-(naphthalen-2-yl)-1,3-dioxan-2-yl]propylcarbamate], the melting point lay within 130 to 132 °C.
In the case of `O=C(NCC[C@H]1OC[C@H](c2cccc3ccccc32)CO1)Oc1ccccc1`, the melting point lay in the range of 131 to 133 °C.
Take `CNC(=O)COC(=O)NCCC[C@H]1OC[C@H](c2ccc3ccccc3c2)CO1` [compound 77, 2-(methylamino)-2-oxoethyl trans-3-[5-(naphthalen-2-yl)-1,3-dioxan-2-yl]propylcarbamate]: the melting point is 144 to 146 °C.
The compound `NC(=O)COC(=O)NCCC[C@H]1OC[C@H](c2ccc(Cl)c3ccccc32)CO1` [Compound No. 46, 2-Amino-2-oxoethyl trans-3-[5-(4-chloronaphthalen-1-yl)-1,3-dioxan-2-yl]propylcarbamate] displayed a melting point of 176 to 178 °C.

Source of the values: patent US8119687B2, “Derivatives of dioxan-2-alkyl carbamates, preparation thereof and application thereof in therapeutics” (Sanofi-Aventis, priority 2002, dated 2012).
